# Source: patent US11529323B2 (priority 2017, dated 2022)
# Legend:
# Assay type in all cases: in vivo, mouse
# [1] = system: serum cytokines; test: Serum cytokine panel, multiplex analysis, Study 2, C-26 tumor-bearing mice; conditions: GTx-024 15 mg/kg, AR-42 10 mg/kg p.o. qd, Day 17 sacrifice, mean ± SD
# Procedure: These studies were performed as previously described (Tseng Y C, et al. J Natl Cancer Inst. 2015 107(12):djv274) with modifications. Tumors were established in the right flank by subcutaneous injection of C-26 cells (0.5×10^6 cells in 0.1 mL). […] TFM-4AS-1 (a potent experimental SARM), dihydrotestosterone (DHT) and vehicles were administered by subcutaneous injection.
# This confirmatory study was performed exactly as Study 1 with expanded animal numbers. Tumor-free control groups were maintained at 6 animals each, whereas 10 animals were included in each of the tumor-bearing groups. […] Grip strength was measured on study days 0 (baseline) and 16. Due to rapid model progression, this study was terminated after only 12 days of treatment.
# Serum cytokine panel analyses were performed by a commercial vendor (Eve Technologies, Calgary, Canada) as previously described. Serum interleukin-6 (IL-6) was measured using a commercial ELISA kit (R&D Systems, Minneapolis, Minn., USA) according to the manufacturer's instructions.
# [2] = system: atrogin-1 (FBXO32), MuRF-1 (TRIM63), CEBPO (CEBPD); test: qRT-PCR of atrophy-related genes in gastrocnemius muscle, Study 1; conditions: relative to tumor-bearing controls, GTx-024 15 mg/kg, AR-42 10 mg/kg
# Procedure: FIGS. 3A-B show gene expression of multiple cachexia-associated markers in gastrocnemius muscles of individual animals from Study 1 (n=5-6 per group). Expression was determined by qRT-PCR (Geometric Mean±Geometric STD). FIG. 3A contains bar graphs showing genes associated with muscle atrophy. FIG. 3B is a bar graph showing androgen receptor (AR) mRNA expression. […] Statistics all panels: *p<0.05, ***p<0.001, ****p<0.0001 versus tumor-bearing vehicle-treated controls, Dunnett's multiple comparison test. CEBPO, n=4, insufficient sample to analyze all tumor-bearing GTx-024-treated animals.
# qRT-PCR: To generate muscle tissue RNA, 15 mg of gastrocnemius muscle tissue was lysed in 10 volumes of lysis buffer per tissue mass in prefilled 2.0 ml tubes with 3.0 mm zirconium beads (MIDSCl; St. Louis, Mo.). Tubes were loaded into Beadblaster™ 24 (MIDSCl; St. Louis, Mo.) and centrifuged for 5 cycles of 5 seconds with a 30 second pause between cycles. Lysate was collected and RNA was isolated using the mirVana™ miRNA Isolation Kit, with phenol (ThermoFisher; Waltham, Mass.). Samples were treated with DNA-free DNA Removal Kit to eliminate any DNA contamination (Invitrogen, Carlsbad, Calif.). […] As transformed expression data are not normally distributed, statistical differences between treatment groups were determined by one-way ANOVA followed by Dunnett's test on raw delta Ct values.
# [3] = system: gastrocnemius transcriptome; test: RNA-seq of gastrocnemius muscles, Study 1; conditions: for expression of Wnt5a, Fzd1, β-catenin (CTNNB1) and GSK3B: gastrocnemius of tumor-bearing mice, AR-42: with the exception of β-catenin
# Procedure: For each sample, 600 ng total RNA (Bioanalyzer RIN values>7) was used to generate polyA enriched RNA-seq libraries with the NEBNext Ultra II Directional RNA Library Prep Kit (New England Biolabs, Inc., catolog number E7760) and sequenced as PE-150 reads on HiSeq 4000 (Illumina Inc, San Diego, Calif.). Raw fastq files were adaptor trimmed using Trimmomatic (Bolger, A. M., et al. Bioinformatics 2014 30(15):2114-2120), aligned to the mm10 genome with Subread (Liao Y, et al. Nucleic Acids Res. 2013 41(10):e108), and marked for duplicate reads with Picard v2.3.0. Samtools (Li H., et al. Bioinformatics 2014 25:2078-9) was used to calculate post-alignment quality control metrics (Table 3). A gene-based counts matrix was generated with the summarizeOverlaps function of GenomicAlignments (Lawrence M, et al. PLoS Comput Biol 9(8):e1003118) and analyzed with DESeq2 (Love, M. I., et al. Genome biology 15(12):550) for genes differentially expressed among groups. GSEAPreranked analyses (Subramanian A, et al. Proc Natl Acad Sci USA. 2005 102:15545-15550) were performed using the signed log 10 p-values for each gene to test for significant enrichment of gene sets in the ‘TF Targets’ file downloaded from ge-lab.org/#/data. Any duplication in signed log 10 p-values was removed prior to running the GSEAPreranked analyses by adding a small value sampled at random from a normal distribution with mean zero and standard deviation 0.00001 to each duplicated value. GSEAPreranked analyses were performed in classic mode on gene sets with a minimum and maximum of 5 and 5000 genes in the gene set, respectively, and were followed by leading-edge analyses for selected comparison and gene set combinations. Heatmaps for RNA-seq data were generated with pheatmap using z-scores calculated from log count-per-million values obtained with the ‘cpm’ function in EdgeR (Robinson, M. D., et al. Bioinformatics 2010 26:139-140).
SMILES,"Eotaxin, serum [1]","G-CSF, serum [1]","GM-CSF, serum [1]","IFNg, serum [1]","IL12 (p40), serum [1]","IL-1a, serum [1]","IL-1b, serum [1]","IL-2, serum [1]","IL-3, serum [1]","IL-4, serum [1]","IL-5, serum [1]","IL-6, serum [1]","IL-7, serum [1]","IL-9, serum [1]","IL-10, serum [1]","IL-12 (p70), serum [1]","IL-13, serum [1]","IL-15, serum [1]","IL-17, serum [1]","IP-10, serum [1]",further results
"CC(C)[C@H](C(=O)Nc1ccc(C(=O)NO)cc1)c1ccccc1 [AR-42, (S)—N-hydroxy-4-(3-methyl-2-phenylbutanamido)benzamide]",735.73 ± 110.62 pg/mL,2782.18 ± 2191.30 pg/mL,18.70 ± 3.77 pg/mL,4.69 ± 1.11 pg/mL,31.22 ± 24.43 pg/mL,143.31 ± 157.59 pg/mL,20.48 ± 6.25 pg/mL,19.37 ± 6.07 pg/mL,0.72 ± 0.83 pg/mL,0.32 ± 0.19 pg/mL,5.50 ± 4.41 pg/mL,256.59 ± 183.1 pg/mL,41.51 ± 99.92 pg/mL,11.28 ± 7.68 pg/mL,15.13 ± 11.16 pg/mL,10.16 ± 6.16 pg/mL,34.19 ± 8.29 pg/mL,51.57 ± 19.99 pg/mL,1.82 ± 0.85 pg/mL,215.35 ± 52.46 pg/mL,"KC, serum [1]: 363.38 ± 200.65 pg/mL; LIF, serum [1]: 15.79 ± 5.15 pg/mL; LIX, serum [1]: 2515.38 ± 3119.67 pg/mL; M-CSF, serum [1]: 20.21 ± 4.63 pg/mL; MCP-1, serum [1]: 91.18 ± 40.23 pg/mL; MIG, serum [1]: 55.17 ± 10.58 pg/mL; MIP-1a, serum [1]: 63.79 ± 19.14 pg/mL; MIP-1b, serum [1]: 76.41 ± 12.81 pg/mL; MIP-2, serum [1]: 146.34 ± 32.60 pg/mL; RANTES, serum [1]: 19.70 ± 4.31 pg/mL; TNFa, serum [1]: 12.77 ± 4.55 pg/mL; VEGF, serum [1]: 1.04 ± 0.24 pg/mL; atrogin-1, MuRF-1, or CEBPO expression [2]: significantly reduced the expression of each atrogene; IL-6 receptor (IL-6RA) mRNA expression in gastrocnemius ([3]; cachectic mice): restore non-cachectic control levels; expression of Wnt5a, Fzd1, β-catenin (CTNNB1) and GSK3B [3]: effectively reversed tumor-induced regulation"
"C[C@](O)(COc1ccc(C#N)cc1)C(=O)Nc1ccc(C#N)c(C(F)(F)F)c1 [GTx-024, (2S)-3-(4-cyanophenoxy)-N-(4-cyano-3-(trifluoromethyl)phenyl)-2-hydroxy-2-methylpropanamide]",876.82 ± 100.53 pg/mL,2446.63 ± 1625.70 pg/mL,17.35 ± 4.33 pg/mL,4.12 ± 2.09 pg/mL,27.61 ± 27.95 pg/mL,167.80 ± 156.50 pg/mL,12.12 ± 5.54 pg/mL,15.62 ± 3.41 pg/mL,0.92 ± 0.56 pg/mL,0.23 ± 0.14 pg/mL,1.11 ± 0.66 pg/mL,397.54 ± 341.43 pg/mL,11.19 ± 8.17 pg/mL,8.69 ± 9.43 pg/mL,14.15 ± 18.01 pg/mL,12.62 ± 7.71 pg/mL,31.63 ± 8.22 pg/mL,97.32 ± 39.18 pg/mL,1.75 ± 1.28 pg/mL,154.76 ± 17.98 pg/mL,"KC, serum [1]: 288.89 ± 154.46 pg/mL; LIF, serum [1]: 45.26 ± 21.57 pg/mL; LIX, serum [1]: 5234.39 ± 4771.34 pg/mL; M-CSF, serum [1]: 22.23 ± 9.45 pg/mL; MCP-1, serum [1]: 88.07 ± 24.41 pg/mL; MIG, serum [1]: 39.33 ± 12.88 pg/mL; MIP-1a, serum [1]: 108.03 ± 27.91 pg/mL; MIP-1b, serum [1]: 81.67 ± 11.63 pg/mL; MIP-2, serum [1]: 147.63 ± 59.81 pg/mL; RANTES, serum [1]: 20.67 ± 4.57 pg/mL; TNFa, serum [1]: 12.71 ± 5.12 pg/mL; VEGF, serum [1]: 0.87 ± 0.29 pg/mL; atrogin-1, MuRF-1, or CEBPO expression [2]: no significant impact; expression of Wnt5a, Fzd1, β-catenin (CTNNB1) and GSK3B [3]: failed to restore expression to tumor-free control levels"
